Like-named read-outs stand apart in the source and are kept apart here.
Legend:
[1] = test system: IRF pathway, THP1-Dual™ cells; assay: STING reporter assay in THP1-Dual cells, IRF pathway (Lucia luciferase, QUANTI-Luc); format: cell-based, human; details: read-out: IRF (EC50 μM)
Outline: (§1)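 THP-1-derived dual-reporter cells treated with serially diluted compounds (final top concentration 100 μM) for 20 h at 37° C. NF-κB read as SEAP via QUANTI-Blue at OD620; IRF read as Lucia luminescence via QUANTI-Luc after 5 min. 100% activation set by 100 μM cGAMP, baseline by DMSO.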

[2] = test system: NF-κB pathway, THP1-Dual™ cells; assay: STING reporter assay in THP1-Dual cells, NF-κB pathway (SEAP, QUANTI-Blue); format: cell-based, human; details: read-out: NFkB (EC50 μM)
Outline: as §1

[3] = Homo sapiens, THP1-Dual, 20 h, THP1-Dual cells, 10% human plasma, 20 hours, Lucia luciferase, 100% activation = 100 μM cGAMP
[4] = Homo sapiens, THP1-Dual, 20 h, THP1-Dual cells, 10% human plasma, 20 hours, SEAP, 100% activation = 100 μM cGAMP
[5] = THP1-Dual cells, 10% human plasma, 20 hours, Lucia luciferase, 100% activation = 100 μM cGAMP
[6] = THP1-Dual cells, 10% human plasma, 20 hours, SEAP, 100% activation = 100 μM cGAMP

Row | Structure (SMILES) | EC50 [1, 3] [µM] | EC50 [2, 4] [µM] | other results
1 | COC(=O)c1cc(Cl)cc2c(C(F)(F)F)c(CNC(=O)c3cnn4cccnc34)oc12 [EXAMPLE 116, Methyl 5-chloro-2-((pyrazolo[1,5-a]pyrimidine-3-carboxamido)methyl)-3-(trifluoromethyl)benzofuran-7-carboxylate] | 2.9 | 3.1 | 
2 | C=Cc1cc(C(=O)OC)c2oc(CNC(=O)c3cnn4cccnc34)cc2c1 [EXAMPLE 100, Methyl 2-((pyrazolo[1,5-a]pyrimidine-3-carboxamido)methyl)-5-vinylbenzofuran-7-carboxylate] | 2.5 | 2.2 | 
3 | COC(=O)c1cccc2cc(Cn3cccc(-c4cnco4)c3=O)oc12 [EXAMPLE 17, Methyl 2-((3-(oxazol-5-yl)-2-oxopyridin-1(2H)-yl)methyl)benzofuran-7-carboxylate] | 48 | 73 | 
4 | C[Si](C)(C)CCSC(=O)c1cc(Cl)cc2cc(CNC(=O)c3cnn4cccnc34)oc12 [EXAMPLE 394] |  |  | EC50 ([1]; Homo sapiens, THP1-Dual, 20 h): > 100 µM; EC50 ([2]; Homo sapiens, THP1-Dual, 20 h): 11 µM
5 | O=C(OC1CC(F)(F)C1(F)F)c1cc(F)cc2cc(CNC(=O)c3cnn4cccnc34)oc12 (single isomer, unassigned) [EXAMPLE 322, 2,2,3,3-Tetrafluorocyclobutyl 5-fluoro-2-((pyrazolo[1,5-a]pyrimidine-3-carboxamido)methyl)benzofuran-7-carboxylate] |  |  | EC50 [1, 5]: 2.2 µM; EC50 [2, 6]: 3.3 µM
6 | COc1cc(C(=O)OCC(F)(F)F)c2oc(CNC(=O)c3cnn4cccnc34)cc2c1 [EXAMPLE 280, 2,2,2-Trifluoroethyl 5-methoxy-2-((pyrazolo[1,5-a]pyrimidine-3-carboxamido)methyl)benzofuran-7-carboxylate] | 2.5 | 2.4 | 
7 | COC[C@@H](C)OC(=O)c1cc(Cl)cc2cc(CNC(=O)c3cnn4cccnc34)oc12 [EXAMPLE 242, (R)-1-Methoxypropan-2-yl 5-chloro-2-((pyrazolo[1,5-a]pyrimidine-3-carboxamido)methyl)benzofuran-7-carboxylate] | 2.4 | 2.1 | 
8 | C[C@H](NC(=O)c1cnn2cccnc12)c1cc2cc(F)cc(C(=O)SCC[Si](C)(C)C)c2o1 [EXAMPLE 398, S-(2-(Trimethylsilyl)ethyl) (S)-5-fluoro-2-(1-(pyrazolo[1,5-a]pyrimidine-3-carboxamido)ethyl)benzofuran-7-carbothioate] |  |  | EC50 ([1]; Homo sapiens, THP1-Dual, 20 h): 9.4 µM; EC50 ([2]; Homo sapiens, THP1-Dual, 20 h): 5.7 µM
9 | C[C@@H](OC(=O)c1c(F)c(F)cc2cc(CNC(=O)c3cnn4cccnc34)oc12)C(F)(F)F [EXAMPLE 284, (R)-1,1,1-Trifluoropropan-2-yl 5,6-difluoro-2-((pyrazolo[1,5-a]pyrimidine-3-carboxamido)methyl)benzofuran-7-carboxylate] | 9.6 | 6.3 | 
10 | COC(=O)c1cc(Cl)cc2c(Cl)c(CNC(=O)c3cnn4cccnc34)oc12 [EXAMPLE 112, Methyl 3,5-dichloro-2-((pyrazolo[1,5-a]pyrimidine-3-carboxamido)methyl)benzofuran-7-carboxylate] | 0.2 | 0.26 | 
11 | CC(F)(F)COC(=O)c1cccc2cc(CN3CCc4ccncc4C3=O)oc12 [EXAMPLE 212, 2,2-Difluoropropyl 2-((1-oxo-3,4-dihydro-2,7-naphthyridin-2(1H)-yl)methyl)benzofuran-7-carboxylate] | 52 | 58 | 
12 | CSC(=O)c1cc(C)cc2c(Cl)c(CNC(=O)c3cnn4cccnc34)oc12 [EXAMPLE 397] | 0.46 | 0.47 | 
13 | COC(OC(=O)c1cc(F)cc2cc(CNC(=O)c3cnn4cccnc34)oc12)C(F)(F)F (single isomer, unassigned) [EXAMPLE 320, 2,2,2-Trifluoro-1-methoxyethyl 5-fluoro-2-((pyrazolo[1,5-a]pyrimidine-3-carboxamido)methyl)benzofuran-7-carboxylate] |  |  | EC50 [1, 5]: 1.4 µM; EC50 [2, 6]: 1.4 µM
14 | Cc1cc(C(=O)OCC(F)(F)F)c2oc(CNC(=O)c3cnn4cccnc34)c(Cl)c2c1 [EXAMPLE 299, 2,2,2-Trifluoroethyl 3-chloro-5-methyl-2-((pyrazolo[1,5-a]pyrimidine-3-carboxamido)methyl)benzofuran-7-carboxylate] | 0.28 | 0.33 | 
15 | CCOC(OC(=O)c1cc(F)cc2cc(CNC(=O)c3cnn4cccnc34)oc12)C(F)F (single isomer, unassigned) [EXAMPLE 324, 1-Ethoxy-2,2-difluoroethyl 5-fluoro-2-((pyrazolo[1,5-a]pyrimidine-3-carboxamido)methyl)benzofuran-7-carboxylate] |  |  | EC50 [1, 5]: 1.5 µM; EC50 [2, 6]: 1.7 µM
16 | CSC(=O)c1cc(F)cc2cc(CNC(=O)c3cnccn3)oc12 [EXAMPLE 384, S-Methyl 5-fluoro-2-((pyrazine-2-carboxamido)methyl)benzofuran-7-carbothioate] | 3.2 | 3 | 
17 | CCc1cc(C(=O)OC)c2oc(CNC(=O)c3cnn4cccnc34)cc2c1 [EXAMPLE 101, Methyl 5-ethyl-2-((pyrazolo[1,5-a]pyrimidine-3-carboxamido)methyl)benzofuran-7-carboxylate] | 12 | 10 | 
18 | CC(OC(=O)c1cc(Cl)cc2cc(CN3CCc4ccncc4C3=O)oc12)C(F)(F)F (centres unmarked) [EXAMPLE 338, 1,1,1-Trifluoropropan-2-yl 5-chloro-2-((1-oxo-3,4-dihydro-2,7-naphthyridin-2(1H)-yl)methyl)benzofuran-7-carboxylate] |  |  | EC50 [1, 5]: 46 µM; EC50 [2, 6]: 48 µM
19 | CCSC(=O)c1cc(F)cc2cc(CNC(=O)c3cnn4cccnc34)oc12 [EXAMPLE 387, S-Ethyl 5-fluoro-2-((pyrazolo[1,5-a]pyrimidine-3-carboxamido)methyl)benzofuran-7-carbothioate] | 1.9 | 2.1 | 

The next lines start with results.

Row | EC50 [1, 3] [µM] | EC50 [2, 4] [µM] | Structure (SMILES) | other results
20 | 5 | 3.9 | CC(NC(=O)c1cnn2cccnc12)c1cc2cc(F)cc(C(=O)O[C@@H](C)C(F)(F)F)c2o1 (stereo partly drawn) [EXAMPLE 305, (S)-1,1,1-Trifluoropropan-2-yl 5-fluoro-2-(1-(pyrazolo[1,5-a]pyrimidine-3-carboxamido)ethyl)benzofuran-7-carboxylate] | 
21 | 0.8 | 0.83 | Cc1cc(C(=O)OC(CF)CF)c2oc(CNC(=O)c3cnn4cccnc34)cc2c1 [EXAMPLE 274, 1,3-Difluoropropan-2-yl 5-methyl-2-((pyrazolo[1,5-a]pyrimidine-3-carboxamido)methyl)-benzofuran-7-carboxylate] | 
22 | 7.5 | 7.5 | Cc1ccc(C(=O)OC(C)C(F)(F)F)c2oc(CNC(=O)c3cnn4cccnc34)cc12 (centres unmarked) [EXAMPLE 225, 1,1,1-Trifluoropropan-2-yl 4-methyl-2-((pyrazolo[1,5-a]pyrimidine-3-carboxamido)methyl)benzofuran-7-carboxylate] | 
23 | 0.58 | 0.56 | Cc1cc(C(=O)SCC(F)(F)F)c2oc(CNC(=O)c3cnn4cccnc34)cc2c1 [EXAMPLE 389, S-(2,2,2-Trifluoroethyl) 5-methyl-2-((pyrazolo[1,5-a]pyrimidine-3-carboxamido)methyl)benzofuran-7-carbothioate] | 
24 | 1.2 | 0.62 | O=C(OCCCCO)c1cc(Cl)cc2cc(CNC(=O)c3cnn4cccnc34)oc12 [EXAMPLE 250, 4-Hydroxybutyl 5-chloro-2-((pyrazolo[1,5-a]pyrimidine-3-carboxamido)methyl)benzofuran-7-carboxylate] | 
25 | 0.36 | 0.37 | CSC(=O)c1cc(Cl)cc2c(Cl)c(CNC(=O)c3cnn4cccnc34)oc12 [EXAMPLE 396] | 
26 | 1.5 | 1.7 | COC(=O)c1cc(Cl)cc2cc([C@H](C)NC(=O)c3cnn4cccnc34)oc12 [Example 79, Methyl (S)-5-chloro-2-(1-(pyrazolo[1,5-a]pyrimidine-3-carboxamido)ethyl)benzofuran-7-carboxylate] | 
27 | 0.76 | 0.71 | Cc1cc(C(=O)O[C@H](C)C(F)(F)F)c2oc(CNC(=O)c3cnn4cccnc34)c(Cl)c2c1 [EXAMPLE 300, (R)-1,1,1-Trifluoropropan-2-yl 3-chloro-5-methyl-2-((pyrazolo[1,5-a]pyrimidine-3-carboxamido)methyl)benzofuran-7-carboxylate] | 
28 | 51 | 92 | COC(=O)c1cccc2cc(CN3Cc4c(F)cncc4C3=O)oc12 [EXAMPLE 3, Methyl 2-((7-fluoro-3-oxo-1,3-dihydro-2H-pyrrolo[3,4-c]pyridin-2-yl)methyl)benzofuran-7-carboxylate] | 
29 | 3.3 | 3.5 | CCOc1ncncc1C(=O)NCc1cc2cc(Cl)cc(C(=O)OC)c2o1 [Example 74, Methyl 5-chloro-2-((4-ethoxypyrimidine-5-carboxamido)methyl)benzofuran-7-carboxylate] | 
30 | 4.8 | 5.2 | CCOc1ncncc1C(=O)NCc1cc2cc(Cl)cc(C(=O)O[C@H](C)C(F)(F)F)c2o1 [EXAMPLE 263, (R)-1,1,1-trifluoropropan-2-yl 5-chloro-2-((4-ethoxypyrimidine-5-carboxamido)methyl)benzofuran-7-carboxylate] | 
31 | 3 | 4.1 | COC(=O)c1cc(Cl)cc2cc(Cn3cnc4ccncc4c3=O)oc12 [Example 76, Methyl 5-chloro-2-((4-oxopyrido[4,3-d]pyrimidin-3(4H)-yl)methyl)benzofuran-7-carboxylate] | 
